According to patent publication US20110070232A1, “Combination Therapy with an Antitumor Alkaloid” (Pharma Mar, S.A., priority 2008, published 2011):
Read-outs that look alike come from different tables or passages of the source.

Experiments:
[1] = test system: HT-29 (colon cancer) cell line; assay: IC50 determination, MIT (tetrazolium) assay, 72 h (Example 18); type: cell-based, human; conditions: Homo sapiens; HT-29, 72 hours of drug exposure
[2] = test system: LoVo (colon cancer) cell line; assay: as above; type: cell-based, human; conditions: Homo sapiens, 72 hours of drug exposure
[3] = test system: HCT-116 (colon cancer) cell line; assay: as above; type: cell-based, human; conditions: Homo sapiens; HCT-116, 72 hours of drug exposure
Method: HCT-116 cells were grown in McCoy's supplemented with 10% Fetal Bovine Serum (FBS), 1% penicillin/streptomycin and 2 mM L-glutamine.
Before plating, cell cultures were trypsinized and cell number estimated using an automated flow cytometer.
Cells were harvested and seeded in 96 well microtiter plates at the appropriate cell density (5,000-10,000 cells) in 150 μL of media and incubated for 24 hours to allow the cells to attach before drug addition.
After the incubation period (72 hours), 50 μL of MIT solution was added to each microtiter well and incubated for further 8 hours at 37° C. The culture medium was then removed and 50 μl, of DMSO were added to dissolve the MIT crystals. Optical densities were read at 540 nm on spectrophotometer microplate reader.
IC50 values were calculated from an average of two to four assays for each of the test agents.

[4] = test system: BxPC-3 human pancreatic carcinoma cell line; assay: IC50 determination, MTS assay, 72 h (Example 3); type: cell-based; conditions: 72 hours of drug exposure
Method: (§1) Gemcitabine (Gemzar®) was the agent evaluated in combination with PM00104. The human pancreatic carcinoma cell lines selected for this assay were the following: BxPC-3, PANC-1, MIA PaCA-2, and SW1990 cell lines. BxPC-3 cell line was grown in RPMI 1640 medium supplemented with 10% FBS, 1.5 g/L sodium bicarbonate, 4.5 g/L glucose, 10 mM HEPES, 1 mM sodium pyruvate, and 2 mM L-glutamine. PANC-1 cell line was grown in DMEM supplemented with 10% FBS, 1.5 g/L sodium bicarbonate, 4.5 g/L glucose, and 4 mM L-glutamine. MIA PaCA-2 cell line was grown in DMEM supplemented with 10% FBS, 1.5 g/L sodium bicarbonate, 4.5 g/L glucose, 2.5% Horse Serum, and 2 mM L-glutamine. SW1990 cell line was grown in RPMI 1640 medium supplemented with 10% FBS and 2 mM L-glutamine.
(§2) a. […] It was used the same methodology as those disclosed in Example 1.
(§3) IC50 values were calculated from an average of three assays for each of the test agents.

[5] = test system: MIA PaCA-2 human pancreatic carcinoma cell line; assay: IC50 determination, MTS assay, 72 h (Example 3); type: cell-based; conditions: 72 hours of drug exposure
Method: as §1, §2, §3

[6] = test system: PANC-1 human pancreatic carcinoma cell line; assay: IC50 determination, MTS assay, 72 h (Example 3); type: cell-based; conditions: 72 hours of drug exposure
Method: as §1, §2, §3

[7] = test system: SW1990 human pancreatic carcinoma cell line; assay: IC50 determination, MTS assay, 72 h (Example 3); type: cell-based; conditions: 72 hours of drug exposure
Method: as §1, §2, §3

NCI-H460 tumors = type: in vivo, mice
Text: (§4) Female athymic nude mice (Harlan Sprague Dawley, Madison, Wis.) were utilized for all experiments. Animals were housed in ventilated rack caging with food and water ad libitum. The mice were acclimated for at least 5 days prior to tumor implantation.
The tumor model used in this study was NCI-H460 cell line which is a human NSCLC cell line obtained from the ATCC (Manassas, Va.). […] Cells from in vitro passage 9 were those implanted SC into study mice.
Treatments were initiated on DPI 8.
(§5) Tumor size measurements were recorded 2-3 times/week from the treatment initiation until the termination of the study.
(§6) Mean, standard deviation and standard error of the mean were determined for tumor volume for all animal groups at all assessments. Student's t test was performed on tumor volumes at each measurement day, including at the end of the study, to determine whether there were any statistically significant differences between combination treatment groups and single monotherapy treatment groups.

CaLu-6 tumors = type: in vivo, mice
Method: as §4
The tumor model used in this study was CaLu-6 cell line which is a human lung cancer cell line obtained from the ATCC (Manassas, Va.). CaLu-6 cells were grown in Eagle's Minimum Essential Medium (MEM), 10% FBS and 2 mM L-glutamine. Cells from in vitro passage 12 were implanted SC into study mice using a 1 ml syringe with a 13G trocar: 5×10^6 cells/mouse in 0.2 ml 50% Matrigel/50% MEM medium of CaLu-6 without serum or antibiotics. Bacterial culture was taken on cells used to implant the study.
When tumors reached an appropriated volume, within the size range of 99±17 mm^3 (mean±SD), mice were randomized into the treatment and control groups based on tumor weight by using LabCat® In Life module V 8.0 SP1 tumor tracking and measurement software. Treatments were initiated on DPI 9.
as §5, §6

[8] = Gemcitabine 90 mg/kg/day IP, alone or with PM00104 0.9 mg/kg/day IV
[9] = PM00104 0.9 mg/kg/day IV and/or Gemcitabine 180 mg/kg/day IP

SMILES	IC50 [1] [nM]	IC50 [2] [nM]	IC50 [3] [µM]	IC50 [4] [µg/mL]	IC50 [5] [µg/mL]	IC50 [6] [µg/mL]	IC50 [7] [ng/mL]	% T/C on day 8 (NCI-H460 tumors; [9]) [%]	% T/C on day 14 (NCI-H460 tumors; [9]) [%]	% T/C on day 18 (NCI-H460 tumors; [9]) [%]	% T/C on day 21 (NCI-H460 tumors; [9]) [%]	% T/C on day 25 (NCI-H460 tumors; [9]) [%]	% T/C on day 28 (NCI-H460 tumors; [9]) [%]	% T/C on day 9 (CaLu-6 tumors; [9]) [%]	% T/C on day 12 (CaLu-6 tumors; [9]) [%]	% T/C on day 15 (CaLu-6 tumors; [9]) [%]	% T/C on day 19 (CaLu-6 tumors; [9]) [%]	% T/C on day 22 (CaLu-6 tumors; [9]) [%]	% T/C on day 26 (CaLu-6 tumors; [9]) [%]	% T/C on day 29 (CaLu-6 tumors; [9]) [%]	other results
O=c1[nH]cc(F)c(=O)[nH]1 [5-FU, 5-fluorouracil]	4000	1800	6	–	–	–	–	–	–	–	–	–	–	–	–	–	–	–	–	–	–
Nc1ccn([C@@H]2O[C@H](CO)[C@@H](O)C2(F)F)c(=O)n1 [Gemcitabine, gemcitabine]	–	–	–	0.84	0.079	110	12	101.3	67.5	52.0	69.3	58.7	56.8	99.6	39.0	61.0	62.5	48.7	53.0	46.8	% T/C on day 8 (NCI-H460 tumors; [8]): 108.6%; % T/C on day 11 (NCI-H460 tumors; [8]): 83.2%; % T/C on day 14 (NCI-H460 tumors; [8]): 90.2%; % T/C on day 18 (NCI-H460 tumors; [8]): 65.3%; % T/C on day 21 (NCI-H460 tumors; [8]): 73.4%; % T/C on day 25 (NCI-H460 tumors; [8]): 63.2%; % T/C on day 28 (NCI-H460 tumors; [8]): 76.9%; % T/C on day 9 (CaLu-6 tumors; [8]): 100.6%; % T/C on day 12 (CaLu-6 tumors; [8]): 37.8%; % T/C on day 15 (CaLu-6 tumors; [8]): 78.8%; % T/C on day 19 (CaLu-6 tumors; [8]): 64.8%; % T/C on day 22 (CaLu-6 tumors; [8]): 72.0%; % T/C on day 26 (CaLu-6 tumors; [8]): 67.1%; % T/C on day 29 (CaLu-6 tumors; [8]): 61.3%; % T/C on day 34 (CaLu-6 tumors; [8]): 72.8%; % T/C on day 40 (CaLu-6 tumors; [8]): 76.1%; % T/C on day 34 (CaLu-6 tumors; [9]): 52.8%; % T/C on day 40 (CaLu-6 tumors; [9]): 60.4%
COc1c(C)cc2c(c1O)[C@@H]1[C@@H]3Cc4c(OC(C)=O)c(C)c5c(c4[C@H](CNC(=O)/C=C/c4cccc(C(F)(F)F)c4)N3[C@@H](O)[C@H](C2)N1C)OCO5 [PM00104]	6	3	0.009	0.036	0.093	0.015	5.1	103.0	85.6	90.8	81.2	76.7	77.3	102.6	77.9	78.8	90.6	87.8	87.6	73.5	% T/C on day 11 (NCI-H460 tumors; [9]): 98.5%; % T/C on day 34 (CaLu-6 tumors; [9]): 75.8%; % T/C on day 40 (CaLu-6 tumors; [9]): 88.3%
